In patent US20220146526A1, “METHOD FOR EVALUATING SAMPLE, ANALYSIS METHOD, METHOD FOR DETECTING DEGRADED SAMPLE, MARKER FOR DETECTING DEGRADED BLOOD PLASMA SAMPLE, AND MARKER FOR DETECTING DEGRADED SERUM SAMPLE” (SHIMADZU CORPORATION, priority 2019, published 2022):

What was measured:
Type in all cases: physicochemical, human
[1] = LC/MS of blood plasma sample: time from blood collection to centrifugation (Table D); conditions: for Rate of increase or decrease: detection intensity relative to 1 at 15 minutes; for Rate of increase or decrease / Increase or decrease: blood collection to centrifugation; for Increase or decrease: detection intensity
Procedure, shortened: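 Detection intensities are expressed relative to samples centrifuged 15 min after collection (=1), measured by electrospray LC/MS in MRM mode (Discovery HS F5-3, 40 °C, formic acid water/acetonitrile gradient at 0.25 mL/min). EDTA blood from a healthy donor was held at 4 °C, centrifuged at 4 °C, 3000 rpm, 15 min, and plasma frozen.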

[2] = LC/MS of blood plasma sample: time from blood collection to cooling of blood (Table E); set-up: key to Rate of increase or decrease / Rate of increase or decrease (first value, increase): detection intensity relative to ≤1 min to cooling = 1; conditions: for Rate of increase or decrease: detection intensity relative to 1 at 1 minute or less, blood collection to cooling 5 minutes; for Increase or decrease: detection intensity, blood collection to cooling 5 minutes or more vs 1 minute or less
Experimental: At room temperature, 5 mL of blood from a healthy subject was taken into a blood-collecting vessel containing EDTA, and the blood-collecting vessel was inverted for mixing, then cooled, and allowed to stand at 4° C. Here, in order to investigate how the detection intensity of molecules contained in the sample was affected in a case where the time to cooling was set to 5 minutes or more as compared to that in a case where the time to cooling was set to 1 minute or less, preparations were performed under both the former condition and the latter condition. After standing, the blood sample was subjected to centrifugation under a condition of 4° C., 3000 rpm, and 15 minutes. […] After centrifugation, the blood-collecting vessel was left to stand at room temperature for 30 minutes, and the blood plasma was isolated during this 30 minutes. The obtained blood plasma sample was frozen and stored. Here, in order to investigate how the detection intensity of molecules contained in the sample was affected in cases where freezing and thawing was performed 4 times, 6 times, and 10 times after freezing as compared to that in a case where freezing and thawing was performed 2 times after freezing, freezing and thawing was performed under the respective conditions of 2, 4, 6, and 10 times.
(§1) Frozen blood plasma samples and serum samples were subjected to GC/MS or LC/MS. In GC/MS, the blood plasma samples and serum samples were subjected to methoxymation and trimethylsilylation and then introduced to GC-MS.
(§2) Analysis column: Discovery HS F5-3 (inner diameter of 2.1 mm, length of 150 mm, film thickness of 3 μm) (Sigma-Aldrich)
(§3) Column temperature: 40° C.
(§4) (A) 0.1% formic acid (dissolved in water)
(§5) (B) 0.1% formic acid (dissolved in acetonitrile)
(§6) Flow velocity: 0.25 mL/min
(§7) Ionization method: electrospray
(§8) Temperature: • Desolvation Line (DL) temperature: 250° C. • Heat block temperature: 400° C. • Interface temperature: 300° C.
(§9) Gas flow rate: • Nebulizer gas flow rate: 3.0 L/min • Drying gas flow rate: 10.0 L/min • Heating gas flow rate: 10.0 L/min
(§10) Mode: multiple reaction monitoring (MRM)
The rate of increase or decrease in Table E is the value of detection intensity relative to 1 that is the detection intensity in a case where the time from blood collection to cooling is set to 1 minute or less.

[3] = LC/MS of blood plasma sample: number of times of freezing and thawing (Table F); conditions: for Rate of increase or decrease: detection intensity relative to 1 at 2 times; for Increase or decrease: detection intensity
Procedure, shortened: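 Values are detection intensities normalised to 1 for plasma thawed twice, compared against 4, 6 and 10 freeze-thaw cycles. Measured by electrospray LC/MS in MRM mode, formic acid water/acetonitrile mobile phase, column at 40° C. Plasma came from EDTA blood, cooled to 4° C and spun at 3000 rpm for 15 min.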

[4] = LC/MS of serum sample: time from centrifugation to isolation (Table K); set-up: key to Rate of increase or decrease: detection intensity relative to the 30-minute value set as 1; conditions: for Rate of increase or decrease: detection intensity relative to 1 at 30 minutes; for Increase or decrease / Time when compound is affected: serum sample, LC/MS; for Increase or decrease: detection intensity vs 30 minutes from centrifugation to isolation; for Time when compound is affected: time from centrifugation to isolation, detection intensity changed by 30% or more vs 30 minutes
Experimental: After standing, the blood sample was subjected to centrifugation under a condition of room temperature, 3500 rpm, and 5 minutes. […] After centrifugation, the blood-collecting vessel was left to stand at room temperature, and the serum was isolated during this time. Here, in order to investigate how the detection intensity of molecules contained in the sample was affected in cases where the time during which the blood-collecting vessel was left at room temperature was set to 1 hour and 6 hours as compared to that in a case where the time was set to 30 minutes, preparations were performed under the respective conditions of 30 minutes, 1 hour, and 6 hours. The obtained serum sample was frozen and stored. Here, in order to investigate how the detection intensity of molecules contained in the sample was affected in cases where freezing and thawing was performed 4 times, 6 times, and 10 times after freezing as compared to that in a case where freezing and thawing was performed 2 times after freezing, freezing and thawing was performed under the respective conditions of 2, 4, 6, and 10 times.
as §1, §2, §3, §4, §5, §6, §7, §8, §9, §10
The rate of increase or decrease in Table K is the value of detection intensity relative to 1 that is the detection intensity in a case where the time from centrifugation to isolation is set to 30 minutes.

[5] = LC/MS of serum sample: number of times of freezing and thawing (Table M); set-up: key to Rate of increase or decrease: detection intensity relative to 1 at 2 freeze-thaw cycles; conditions: for Number of times when compound is affected / Increase or decrease: serum sample, LC/MS; for Number of times when compound is affected: detection intensity changed by 30% or more vs 2 times of freezing and thawing; for Increase or decrease: detection intensity vs 2 times of freezing and thawing
Procedure, shortened: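 Values are detection intensities relative to serum thawed twice, versus 4, 6 or 10 freeze-thaw cycles. Serum came from blood spun at room temperature, 3500 rpm for 5 minutes. Analysis: electrospray LC/MS in MRM mode, Discovery HS F5-3 column, 40° C, 0.1% formic acid in water and acetonitrile.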

[6] = GC/MS of blood plasma sample: time from blood collection to centrifugation (Table A); conditions: blood collection to centrifugation
Procedure, shortened: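 Read-out is MRM detection intensity by electron-ionization GC/MS on a BPX5 column after methoxymation and trimethylsilylation, expressed relative to a 15-minute collection-to-centrifugation interval. Plasma was prepared from EDTA blood held at 4° C and spun at 4° C, 3000 rpm for 15 minutes, then frozen.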

[7] = GC/MS of blood plasma sample: number of times of freezing and thawing (Table C)
Procedure, shortened: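 Values express detection intensity as a ratio to the 2-cycle freeze-thaw sample (=1), compared with 4, 6 and 10 cycles. Healthy-donor EDTA plasma, cooled at ≤1 min or ≥5 min, spun at 4 °C, 3000 rpm, 15 min. Derivatised by methoxymation/trimethylsilylation; GC-MS/MS in MRM mode with electron ionization.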

[8] = LC/MS of serum sample: time from blood collection to centrifugation (Table J); conditions: for Rate of increase or decrease: after 4 hours from blood collection to centrifugation, detection intensity relative to 1 at 15 minutes; for Increase or decrease / Time when compound is affected: serum sample, LC/MS; for Increase or decrease: detection intensity vs 15 minutes from blood collection to centrifugation; for Time when compound is affected: time from blood collection to centrifugation, detection intensity changed by 30% or more vs 15 minutes
Procedure, shortened: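 Detection intensities are expressed relative to 1 for samples centrifuged 15 min after blood collection; centrifugation was at room temperature, 3500 rpm, 5 min. Frozen serum was run by electrospray LC-MS in MRM mode, with 0.1% formic acid water/acetonitrile at 0.25 mL/min on a 40 °C F5 column.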

[9] = freezing and thawing 4 times vs 2 times
[10] = after 1 hour from centrifugation to isolation
[11] = 4 times of freezing and thawing, detection intensity relative to 1 at 2 times
[12] = 6 times of freezing and thawing, relative to 1 at 2 times, different from individual to individual, first value (increase)
[13] = 6 times of freezing and thawing, relative to 1 at 2 times, different from individual to individual, second value (decrease)

Rate of increase or decrease [2] | Increase or decrease [2] | Rate of increase or decrease ([3]; freezing and thawing 4 times) | Increase or decrease [3, 9] | Rate of increase or decrease [4, 10] | Increase or decrease [4] | Time when compound is affected [4] | Rate of increase or decrease [5, 11] | Number of times when compound is affected [5] [times] | Increase or decrease [5] | Rate of increase or decrease ([1]; after 4 hours) | Increase or decrease ([1]; after 4 hours vs 15 minutes) | Rate of increase or decrease [5, 12] | Rate of increase or decrease [5, 13] | Rate of increase or decrease [8] | Increase or decrease [8] | Time when compound is affected [8] | other results | SMILES
1.31 | Increase | 1.37 | Increase | 0.39 | Decrease | After 1 hour hours | 0.57 | 4 | Decrease | – | – | – | – | – | – | – | Rate of increase or decrease ([1]; after 6 hours): 0.63; Increase or decrease ([1]; after 6 hours vs 15 minutes): Decrease | Nc1ncnc2nc[nH]c12 [Adenine]
– | Different from individual | 1.50 | Increase | 0.13 | Decrease | After 1 hour hours | 0.23 | 4 | Decrease | 1.56 | Increase | – | – | – | – | – | Rate of increase or decrease (second value, decrease) ([2]; different from individual to individual, individuals with decrease, relative to 1 at 1 minute or less, collection to cooling 5 minutes): 0.62; Rate of increase or decrease (first value, increase) ([2]; different from individual to individual, individuals with increase, relative to 1 at 1 minute or less, collection to cooling 5 minutes): 1.43 | Nc1ncnc2c1ncn2[C@@H]1O[C@H](COP(=O)(O)O)[C@@H](O)[C@H]1O [Adenosine monophosphate]
0.66 | Decrease | – | – | – | – | – | – | 6 | Different from individual | – | – | 1.34 | 0.61 | – | – | – | Rate of increase or decrease ([6]; detection intensity relative to 1 at 15 minutes, after 12 hours): 1.41; Increase or decrease ([6]; detection intensity, after 12 hours vs 15 minutes): Increase; Rate of increase or decrease ([7]; detection intensity relative to 1 at 2 times, freezing and thawing 10 times): 1.34; Increase or decrease ([7]; detection intensity, freezing and thawing 10 times vs 2 times): Increase; Increase or decrease ([1]; after 12 hours vs 15 minutes): Different from individual; Rate of increase or decrease (second value, decrease) ([1]; different from individual to individual, individuals with decrease, relative to 1 at 15 minutes, collection to centrifugation, after 12 hours): 0.63; Rate of increase or decrease (first value, increase) ([1]; different from individual to individual, individuals with increase, relative to 1 at 15 minutes, collection to centrifugation, after 12 hours): 1.57; Rate of increase or decrease ([3]; freezing and thawing 10 times): 1.37; Increase or decrease ([3]; freezing and thawing 10 times vs 2 times): Increase | CN(C)CC(=O)O [Dimethylglycine]
2.30 | Increase | 0.95 | Decrease | – | – | – | – | 6 | Different from individual | 2.57 | Increase | 1.30 | 0.31 | 0.56 | Decrease | After 4 hours | – | N[C@@H](Cc1ccc(O)c(O)c1)C(=O)O [Dopa]
1.40 | Increase | – | – | – | – | – | – | 6 | Decrease | 1.44 | Increase | – | – | 2.16 | Increase | After 4 hours | Increase or decrease ([3]; freezing and thawing 6 times vs 2 times): Increase; Rate of increase or decrease ([5]; 6 times of freezing and thawing, detection intensity relative to 1 at 2 times): 0.69 | NC(=O)c1cccnc1 [Nicotinamide]
1.41 | Increase | – | – | – | Increase | After 6 hours | – | 10 | Decrease | 2.20 | Increase | – | – | – | Increase | After 12 hours | Rate of increase or decrease ([4]; after 6 hours from centrifugation to isolation): 2.35; Rate of increase or decrease ([5]; 10 times of freezing and thawing, detection intensity relative to 1 at 2 times): 0.59 | O=C(O)[C@@H]1CCCN1 [Proline]
